Data: ChEMBL document CHEMBL1201862, “PubChem BioAssay data set” (2004)
One block for each compound: values may come before it. Active and inactive are the calls of the source.

Columns and labels:
[1] = target: T1, Oxysterols receptor LXR-beta (Homo sapiens, UniProt P55055); format: functional, cell-based;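 also: agonist activity at LXR measured by a cell-based luminescence readout across a dose range, run as a counterscreen for daf-12 agonists; HEK293 cells with Gal4-LXR fusion and GAL4-driven luciferase reporter; potency for activation of Gal4-LXR reporter so compounds are agonists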
T1 sequence (P55055 whole entry): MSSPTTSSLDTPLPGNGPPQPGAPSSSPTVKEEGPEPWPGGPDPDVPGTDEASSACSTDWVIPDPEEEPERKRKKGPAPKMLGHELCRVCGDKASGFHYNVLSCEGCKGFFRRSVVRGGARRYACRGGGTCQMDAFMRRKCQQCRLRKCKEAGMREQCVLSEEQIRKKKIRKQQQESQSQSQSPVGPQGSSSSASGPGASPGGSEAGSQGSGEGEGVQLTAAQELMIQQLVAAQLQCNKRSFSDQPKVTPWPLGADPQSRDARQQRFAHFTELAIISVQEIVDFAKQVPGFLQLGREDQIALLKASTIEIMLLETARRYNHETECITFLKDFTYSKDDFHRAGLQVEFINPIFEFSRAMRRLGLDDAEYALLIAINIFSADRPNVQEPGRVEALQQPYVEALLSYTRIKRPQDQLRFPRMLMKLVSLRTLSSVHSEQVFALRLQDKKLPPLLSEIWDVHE

[2] = target: T2, Fatty acid synthase (Homo sapiens, UniProt P49327); test: inhibition of human FAS-TE enzyme activity – biochemical, endpoint fluorescence intensity, uHTS hits, dose response (AID 624327); format: functional;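 also: fluorescence from hydrolysis of an O-methyl fluorescein acyl ester substrate by the enzyme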
T2 sequence (P49327 whole entry): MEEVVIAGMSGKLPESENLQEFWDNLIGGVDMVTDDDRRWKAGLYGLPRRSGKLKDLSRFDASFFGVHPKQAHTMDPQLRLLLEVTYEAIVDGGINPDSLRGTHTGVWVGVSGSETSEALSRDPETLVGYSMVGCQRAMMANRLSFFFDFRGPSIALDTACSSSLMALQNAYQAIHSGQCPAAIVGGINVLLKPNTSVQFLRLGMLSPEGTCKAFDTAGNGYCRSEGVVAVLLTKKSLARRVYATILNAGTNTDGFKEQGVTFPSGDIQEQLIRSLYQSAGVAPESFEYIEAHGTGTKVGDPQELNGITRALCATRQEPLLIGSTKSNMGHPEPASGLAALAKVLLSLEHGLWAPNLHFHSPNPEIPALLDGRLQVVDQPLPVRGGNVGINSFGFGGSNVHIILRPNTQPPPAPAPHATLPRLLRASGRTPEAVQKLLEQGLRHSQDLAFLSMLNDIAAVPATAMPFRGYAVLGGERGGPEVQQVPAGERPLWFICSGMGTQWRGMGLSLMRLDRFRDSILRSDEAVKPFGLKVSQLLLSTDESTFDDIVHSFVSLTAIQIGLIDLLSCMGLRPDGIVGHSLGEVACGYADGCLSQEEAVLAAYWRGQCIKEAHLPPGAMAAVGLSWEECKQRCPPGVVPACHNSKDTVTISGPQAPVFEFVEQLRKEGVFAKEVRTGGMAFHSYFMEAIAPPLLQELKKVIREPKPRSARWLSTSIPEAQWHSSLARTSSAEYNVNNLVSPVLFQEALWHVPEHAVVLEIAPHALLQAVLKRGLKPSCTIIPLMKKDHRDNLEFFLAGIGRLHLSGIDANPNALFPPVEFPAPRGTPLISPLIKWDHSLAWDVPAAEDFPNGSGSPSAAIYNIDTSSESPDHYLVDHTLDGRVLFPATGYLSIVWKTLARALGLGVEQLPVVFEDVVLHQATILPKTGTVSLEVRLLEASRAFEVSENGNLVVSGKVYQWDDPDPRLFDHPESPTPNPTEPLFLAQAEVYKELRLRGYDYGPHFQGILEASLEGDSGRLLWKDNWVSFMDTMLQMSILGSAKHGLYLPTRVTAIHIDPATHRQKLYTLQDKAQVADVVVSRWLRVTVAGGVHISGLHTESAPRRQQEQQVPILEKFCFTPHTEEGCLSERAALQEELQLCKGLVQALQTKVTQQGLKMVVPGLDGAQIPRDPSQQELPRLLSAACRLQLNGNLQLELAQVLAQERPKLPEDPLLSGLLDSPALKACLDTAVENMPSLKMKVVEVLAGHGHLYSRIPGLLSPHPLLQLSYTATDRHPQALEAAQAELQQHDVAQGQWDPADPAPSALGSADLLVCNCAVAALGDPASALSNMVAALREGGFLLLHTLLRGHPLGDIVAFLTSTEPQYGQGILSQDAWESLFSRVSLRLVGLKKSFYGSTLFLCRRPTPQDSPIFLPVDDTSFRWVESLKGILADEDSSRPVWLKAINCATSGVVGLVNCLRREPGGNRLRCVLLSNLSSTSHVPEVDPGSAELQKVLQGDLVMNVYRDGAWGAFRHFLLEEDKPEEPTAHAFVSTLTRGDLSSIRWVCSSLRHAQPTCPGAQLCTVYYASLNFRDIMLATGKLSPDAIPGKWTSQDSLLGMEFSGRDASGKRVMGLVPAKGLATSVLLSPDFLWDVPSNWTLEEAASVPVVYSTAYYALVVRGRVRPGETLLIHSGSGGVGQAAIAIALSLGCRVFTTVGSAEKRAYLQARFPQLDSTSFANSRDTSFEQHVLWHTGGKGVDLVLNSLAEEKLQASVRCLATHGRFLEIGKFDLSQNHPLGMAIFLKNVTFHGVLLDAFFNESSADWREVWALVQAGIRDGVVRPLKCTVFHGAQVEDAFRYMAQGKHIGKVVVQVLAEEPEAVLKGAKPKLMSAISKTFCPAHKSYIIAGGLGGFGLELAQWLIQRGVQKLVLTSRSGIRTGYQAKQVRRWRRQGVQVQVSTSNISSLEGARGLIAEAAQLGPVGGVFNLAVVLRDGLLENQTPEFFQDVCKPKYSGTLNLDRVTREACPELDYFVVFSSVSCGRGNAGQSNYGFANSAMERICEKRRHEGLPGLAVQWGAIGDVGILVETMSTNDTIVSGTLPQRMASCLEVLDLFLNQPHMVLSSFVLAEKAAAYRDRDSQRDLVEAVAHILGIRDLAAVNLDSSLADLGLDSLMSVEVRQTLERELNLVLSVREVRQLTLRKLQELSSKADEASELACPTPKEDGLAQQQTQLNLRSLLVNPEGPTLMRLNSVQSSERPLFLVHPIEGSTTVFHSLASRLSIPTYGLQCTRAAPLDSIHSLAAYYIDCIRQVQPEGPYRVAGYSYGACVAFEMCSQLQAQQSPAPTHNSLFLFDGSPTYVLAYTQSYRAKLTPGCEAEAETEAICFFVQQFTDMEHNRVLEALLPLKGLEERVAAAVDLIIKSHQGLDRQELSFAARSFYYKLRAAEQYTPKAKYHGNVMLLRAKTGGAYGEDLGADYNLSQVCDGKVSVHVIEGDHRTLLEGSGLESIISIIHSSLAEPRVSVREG

[3] = target: T2, Fatty acid synthase; test: inhibition of human FAS-TE enzyme activity – biochemical, kinetic fluorescence intensity, dose response (AID 624326); format: functional;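 also: rate of fluorescence rise from hydrolysis of a fluorogenic O-methyl fluorescein ester substrate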
[4] = intracellular Trypanosoma cruzi inhibitors in host cells – cell-based, plate reader, cherry-pick samples, set 3, dose response (AID 651818); format: functional;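 also: compounds incubated with infected cells for about four days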
[5] = blockade of melanocortin 4 receptor signaling – cell-based, plate reader, cherry pick, counter-screen for LGR2 antagonist project, dose response (AID 743444); format: functional;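 also: transfected HEK 293 cells stimulated with alpha-MSH peptide; potency of inhibitors of the alpha-MSH evoked signal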
[6] = target: T3, Heat shock factor protein 1 (Mus musculus, UniProt P38532); test: decrease of HSF1-responsive luciferase luminescence – cell-based, NIH3T3, dose retest, confirmation (AID 2382); format: functional;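 also: NIH3T3 fibroblasts with HSF1-driven luciferase reporter stressed by proteasome inhibitor MG132; luminescence from HSF1-driven luciferase expression after 8 hours of MG132 stress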
T3 sequence (P38532 whole entry): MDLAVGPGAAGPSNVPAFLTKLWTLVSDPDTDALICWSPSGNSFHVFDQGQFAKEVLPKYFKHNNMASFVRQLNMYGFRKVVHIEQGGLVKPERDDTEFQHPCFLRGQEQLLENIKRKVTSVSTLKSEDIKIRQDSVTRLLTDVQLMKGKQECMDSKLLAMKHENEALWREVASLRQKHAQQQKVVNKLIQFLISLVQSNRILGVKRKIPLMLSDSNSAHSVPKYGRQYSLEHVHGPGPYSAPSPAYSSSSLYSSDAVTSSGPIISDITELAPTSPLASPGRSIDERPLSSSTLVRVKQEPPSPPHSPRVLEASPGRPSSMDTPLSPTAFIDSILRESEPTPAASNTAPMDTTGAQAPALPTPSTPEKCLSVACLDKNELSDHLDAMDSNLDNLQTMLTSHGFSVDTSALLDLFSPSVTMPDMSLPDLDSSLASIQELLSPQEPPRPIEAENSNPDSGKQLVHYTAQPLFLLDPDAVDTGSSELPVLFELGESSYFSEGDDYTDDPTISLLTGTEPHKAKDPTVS

[7] = blockers of bursicon-stimulated LGR2 cAMP reporter – cell-based, HEK293, CRE-luciferase reporter, cherry pick, set 2, dose response (AID 743343); format: functional;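 also: transfected cells were stimulated with diluted bursicon conditioned medium after compound addition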
[8] = target: Peroxisome proliferator-activated receptor gamma/Nuclear receptor coactivator 3 (Homo sapiens, UniProt P37231); test: (§1) TR-FRET dose response biochemical High Throughput Screening assay for agonists of the steroid receptor coactivator 3 (SRC-3) recruitment by the peroxisome proliferator-activated receptor gamma (PPAR gamma): non-selective agonists. [Related pubchem assays: 1301 (Confirmation screen.), 1048 (Primary screen.)]; format: functional
[9] = target: Peroxisome proliferator-activated receptor gamma/Nuclear receptor coactivator 1 (Homo sapiens, UniProt P37231); test: as §1, with “1 (SRC-1)” for “3 (SRC-3)”, “assays (depositor defined):AID1300, AID1808, AID504735, AID631]” for “assays: 1301 (Confirmation screen.), 1048 (Primary screen.)]”; format: protein assay
[10] = target: Peroxisome proliferator-activated receptor gamma/Nuclear receptor coactivator 2 (Homo sapiens, UniProt P37231); test: TR-FRET dose response biochemical High Throughput Screening assay for agonists of the steroid receptor coactivator 2 (SRC-2) recruitment by the peroxisome proliferator-activated receptor gamma (PPAR gamma): non-selective agonists. [Related pubchem assays: 1297, 1032 ]; format: functional
Sequence of Peroxisome proliferator-activated receptor gamma/Nuclear receptor coactivator 2 (P37231 whole entry): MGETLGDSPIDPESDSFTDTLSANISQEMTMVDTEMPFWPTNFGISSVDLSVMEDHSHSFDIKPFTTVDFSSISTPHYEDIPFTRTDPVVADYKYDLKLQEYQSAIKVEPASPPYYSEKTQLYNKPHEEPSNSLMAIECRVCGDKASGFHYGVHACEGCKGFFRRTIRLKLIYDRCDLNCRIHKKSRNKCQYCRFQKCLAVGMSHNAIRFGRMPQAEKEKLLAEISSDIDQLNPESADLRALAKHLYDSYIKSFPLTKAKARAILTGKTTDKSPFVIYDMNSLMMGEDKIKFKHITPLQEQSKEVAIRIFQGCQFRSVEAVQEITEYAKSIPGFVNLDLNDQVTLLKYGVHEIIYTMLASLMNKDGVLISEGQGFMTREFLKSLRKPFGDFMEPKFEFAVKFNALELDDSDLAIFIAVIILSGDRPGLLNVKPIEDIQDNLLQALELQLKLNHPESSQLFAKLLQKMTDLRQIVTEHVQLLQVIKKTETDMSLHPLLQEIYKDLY
Sequence of Peroxisome proliferator-activated receptor gamma/Nuclear receptor coactivator 2 (Q15596 whole entry, further chain): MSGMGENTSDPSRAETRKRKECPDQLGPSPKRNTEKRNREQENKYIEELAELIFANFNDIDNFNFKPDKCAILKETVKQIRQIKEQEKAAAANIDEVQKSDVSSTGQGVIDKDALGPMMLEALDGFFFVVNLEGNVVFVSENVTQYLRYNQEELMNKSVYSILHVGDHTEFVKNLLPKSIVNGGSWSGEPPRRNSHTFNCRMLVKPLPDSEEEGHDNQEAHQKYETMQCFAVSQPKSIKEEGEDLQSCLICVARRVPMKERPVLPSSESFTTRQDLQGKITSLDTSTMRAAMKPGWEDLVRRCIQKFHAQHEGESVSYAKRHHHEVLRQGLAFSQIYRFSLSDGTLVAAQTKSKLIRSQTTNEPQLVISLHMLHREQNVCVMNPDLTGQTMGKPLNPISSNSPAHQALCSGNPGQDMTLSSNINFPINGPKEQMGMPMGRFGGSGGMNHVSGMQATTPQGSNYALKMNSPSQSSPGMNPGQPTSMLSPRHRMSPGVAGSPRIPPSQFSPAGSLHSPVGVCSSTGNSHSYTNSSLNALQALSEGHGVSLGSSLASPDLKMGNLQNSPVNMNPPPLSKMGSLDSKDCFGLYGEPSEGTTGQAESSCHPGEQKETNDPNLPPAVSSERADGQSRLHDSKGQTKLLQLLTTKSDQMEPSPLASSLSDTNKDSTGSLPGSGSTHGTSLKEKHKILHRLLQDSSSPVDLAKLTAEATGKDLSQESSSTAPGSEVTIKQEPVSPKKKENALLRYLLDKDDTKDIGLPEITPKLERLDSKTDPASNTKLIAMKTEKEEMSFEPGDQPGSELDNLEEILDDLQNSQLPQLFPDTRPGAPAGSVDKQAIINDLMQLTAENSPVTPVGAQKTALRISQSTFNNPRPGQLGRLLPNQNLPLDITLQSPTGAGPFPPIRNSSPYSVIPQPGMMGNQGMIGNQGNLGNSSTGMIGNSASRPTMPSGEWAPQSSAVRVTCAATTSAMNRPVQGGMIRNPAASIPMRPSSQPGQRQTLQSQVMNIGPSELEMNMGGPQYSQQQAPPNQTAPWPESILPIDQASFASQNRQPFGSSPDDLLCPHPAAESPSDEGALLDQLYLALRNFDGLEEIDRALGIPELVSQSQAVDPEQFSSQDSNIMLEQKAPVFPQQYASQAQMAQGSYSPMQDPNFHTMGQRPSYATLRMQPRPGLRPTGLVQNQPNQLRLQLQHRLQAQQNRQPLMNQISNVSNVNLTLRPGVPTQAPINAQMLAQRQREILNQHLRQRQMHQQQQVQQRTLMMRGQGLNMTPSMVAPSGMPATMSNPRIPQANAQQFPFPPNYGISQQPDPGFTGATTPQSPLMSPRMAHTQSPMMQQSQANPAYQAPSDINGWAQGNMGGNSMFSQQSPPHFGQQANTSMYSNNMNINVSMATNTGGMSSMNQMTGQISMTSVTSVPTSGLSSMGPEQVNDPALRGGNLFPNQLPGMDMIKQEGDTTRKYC

[11] = target: T4, fMet-Leu-Phe receptor (Homo sapiens, UniProt P21462); test: formyl peptide receptor binders – dose response (AID 519); format: functional
T4 sequence (P21462 whole entry): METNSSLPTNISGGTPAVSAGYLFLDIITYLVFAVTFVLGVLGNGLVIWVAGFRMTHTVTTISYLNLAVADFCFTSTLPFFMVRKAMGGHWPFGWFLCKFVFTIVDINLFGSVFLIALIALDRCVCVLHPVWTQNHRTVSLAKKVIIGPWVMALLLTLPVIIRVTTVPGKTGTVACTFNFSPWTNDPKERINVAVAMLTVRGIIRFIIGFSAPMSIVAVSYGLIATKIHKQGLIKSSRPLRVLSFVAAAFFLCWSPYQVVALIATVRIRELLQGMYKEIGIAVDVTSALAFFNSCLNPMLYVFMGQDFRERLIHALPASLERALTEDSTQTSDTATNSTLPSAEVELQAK

[12] = non-specific 3'UTR reporter inhibition in Clone20-Shn3RL – cell-based, Renilla luciferase, cherry-picked, counter-screen for Shn3 inhibitor project, dose response (AID 624133); format: functional
[13] = reduction of Shn3 3'UTR-driven luciferase in osteoblasts – cell-based, Clone20 osteoblasts, firefly luciferase, cherry-picked, dose response (AID 624132); format: functional;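 also: firefly luciferase luminescence from reporter carrying the Shn3 3'UTR in osteoblasts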
[14] = HEK-293T cell viability reduction – luminescence, B-cell screen hits, cytotoxicity control for BCR NF-kB inhibitor project, dose response (AID 489021); format: functional, cell-based;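 also: HEK-293T cells carrying an NF-kB luciferase reporter; cells exposed to compound for about 14 hours before viability readout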
[15] = test system: INS1; test: INS-1E survival protection against cytokine death – cell-based, luminescence, retest, dose response (AID 449756); format: functional; settings: Rattus norvegicus;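 also: cell death triggered by IL-1 beta plus TNF-alpha plus IFN-gamma mixture; protective hits raise ATP signal compared with cytokine alone wells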
[16] = loss of viability in HepG2 cells – cell-based, CellTiter-Glo, cherry-picked, cytotoxicity control for Shn3 inhibitor project, dose response (AID 624134); format: functional
[17] = viability loss in THP-1 monocytes – THP-1 cells, cytotoxicity control for Vif-APOBEC3G degradation inhibitor project, dose response (AID 1117359); format: functional; settings: THP-1
[18] = target: Eukaryotic translation initiation factor 4E (Mus musculus, UniProt P63073); test: blockers of eIF4G binding by eIF4E – biochemical, TR-FRET, dose response (AID 855); format: functional;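 also: potency for disrupting eIF4E binding to eIF4GI seen as loss of FRET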
Sequence of Eukaryotic translation initiation factor 4E (P63073 whole entry): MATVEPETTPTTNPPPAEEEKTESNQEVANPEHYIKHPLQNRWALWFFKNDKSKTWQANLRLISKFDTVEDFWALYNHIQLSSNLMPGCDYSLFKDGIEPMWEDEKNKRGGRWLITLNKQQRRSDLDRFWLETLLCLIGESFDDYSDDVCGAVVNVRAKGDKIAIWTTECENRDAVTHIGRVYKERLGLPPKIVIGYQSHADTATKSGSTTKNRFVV

[19] = target: T5, Protein Tat (Human immunodeficiency virus type 1 group M subtype B (isolate HXB2)(HIV-1), UniProt P04608); format: functional;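 also: tat binding to TAR RNA read out by fluorescence polarization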
T5 sequence (P04608 whole entry): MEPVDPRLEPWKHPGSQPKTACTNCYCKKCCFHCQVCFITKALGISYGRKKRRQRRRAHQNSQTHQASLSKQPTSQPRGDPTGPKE

Structure (SMILES): Cc1noc(C)c1S(=O)(=O)Nc1ccc2c(c1)CC(=O)N([C@@H](C)CO)C[C@@H](C)[C@@H](CN(C)Cc1ccc(C(=O)Nc3ccccc3N)cc1)O2
- AC50 [4]: 2.56 µM (active)

Structure (SMILES): CC(C)(C)n1ncc2c(=O)n(CC(=O)OCc3ccccc3)cnc21
- AC50 [5]: 2.3 µM (active)
- EC50 [6]: 23.5 µM (active)
- AC50 [7]: 2.51 µM (active)

Structure (SMILES): C[C@H]1CN([C@@H](C)CO)C(=O)Cc2cc(NC(=O)Nc3cccc4ccccc34)ccc2O[C@H]1CN(C)Cc1ccc(C(=O)Nc2ccccc2N)cc1
- AC50 [4]: 3.39 µM (active)

Structure (SMILES): CC1=C(C(=O)OC(C)C)[C@]2(C(=O)N(CC(N)=O)c3ccccc32)C(C#N)=C(N)O1
- Ki [11]: > 66.7 µM (inactive)

Structure (SMILES): O=C(Nc1cccc(S(=O)(=O)Nc2ccc(Cl)cc2)c1)c1ccc(Cl)nc1
- AC50 [12]: 11.7 µM (active)
- AC50 [13]: 0.606 µM (active)
- IC50 [14]: 49.5 µM (inactive)
- AC50 [15]: 3.31 µM (active)
- AC50 [16]: 2.63 µM (active)

Structure (SMILES): Cc1nc2c(OCCC3CCCCC3)cccn2c1N(C)C(=O)CCC1CCCC1
- AC50 [5]: 7.16 µM (active)
- AC50 [7]: 9.83 µM (active)

Structure (SMILES): C[C@@H]1CN([C@@H](C)CO)C(=O)Cc2cc(NS(=O)(=O)c3ccc(F)cc3)ccc2O[C@@H]1CN(C)S(=O)(=O)c1ccc(Cl)cc1
- AC50 [4]: 3.3 µM (active)

Structure (SMILES): COc1cc(CN(C(=O)c2ccco2)c2ccc(C)cc2)ccc1O
- CC50 [17]: > 40 µM (active)
- IC50 [18]: > 64 µM (inactive)
- IC50 [19]: 9.05 µM (inconclusive)

Now from value to compound:

- EC50 [1]: > 67.6 µM (inactive)
Structure (SMILES): Cc1nn(-c2nnc(NC3CCCCC3)nn2)c(C)c1Br

- IC50 [2]: 11.4 µM (active)
- IC50 [3]: 10.9 µM (active)
Structure (SMILES): C=CCn1c(SCc2ccc(Br)cc2F)nc2cc(C(=O)O)ccc2c1=O

- EC50 [1]: > 67.6 µM (inactive)
Structure (SMILES): Fc1ccccc1CSc1ncnc2c1ncn2C1CCCCO1 (stereo not drawn)

- EC50 [8]: > 79.4 µM (not active)
- EC50 [9]: 39.2 µM (inactive)
- EC50 [10]: 26.2 µM (not active)
Structure (SMILES): CC(C)Sc1ncnc2c1oc1ccccc12

- EC50 [1]: > 67.5 µM (inactive)
Structure (SMILES): Cc1ccc(C(=N)NOC(=O)c2ccco2)cc1

- IC50 [2]: 53 µM (inactive)
- IC50 [3]: 80 µM (inactive)
Structure (SMILES): Cc1ccc(S(=O)(=O)N[N-][C+]2CCC(C(C)(C)C)CC2)cc1[N+](=O)[O-]

- Ki [11]: > 66.7 µM (inactive)
Structure (SMILES): COc1ccc(-c2cc(C(F)(F)F)nc(N3CCN(Cc4ccccc4)CC3)n2)cc1OC
